Assay results taken from US20220031800A1, “PEPTIDES FOR TREATING NON-EXUDATIVE MACULAR DEGENERATION AND OTHER DISORDERS OF THE EYE” (Allegro Pharmaceuticals, LLC, priority 2019, published 2022).
Square brackets hold non-standard residues; d marks the D form. Peptide text beside a SMILES is read from it. Cya = N[C@@H](CS(=O)(=O)O)C(=O)O

System: study eye of subjects with intermediate non-exudative AMD
Assay: SD-OCT Analysis 2 (thickness, volume, map coverage of retinal layers)
Format: in vivo, human
Description: Numerous study assessments were conducted at various time points throughout the study. Included among these study assessments were; refractive eye examinations, determinations of BCVA AND low-luminance BCVA, Lanthony D-15 color vision test, measurement of intraocular pressure (IOP), Indirect ophthalmoscopy/dilated fundus examinations and spectral-domain optical coherence tomography (SD-OCT). Also, blood and saliva samples were obtained from each subject for genetic analysis. The above-listed study assessments were performed at the time points indicated in Table 1, below: The OCT scans were analyzed by two (2) unrelated experts. In Analysis #2, the OCT images of study eyes were analyzed to determine mean thickness and mean volume of numerous retinal subfields and layer segments at baseline and at Week 12 for sham eyes and at baseline and at Week 32 for risuteganib eyes, to document any significant differences between groups of eyes based on baseline measurements or changes from baseline in those measurements. In addition to the quantitative analysis of OCT images, OCT Analysis #2 included qualitative assessment of the OCT images to identify GA, pseudodrusen, and disruption of the ELM and EZ layers. FIGS. 9A, 9B and 9C illustrate the level of varying pathology within the ELM based on quantitative mapping that were also assessed, with FIG. 9A (left) showing no ELM disruption, FIG. 9B (center) showing segmental disruption, and FIG. 9C showing diffuse disruption.

[1] = change from baseline at Week 32, risuteganib super-responder eyes, n = 8
[2] = paired change from baseline at Week 32, risuteganib arm n = 24
[3] = paired difference from baseline at Week 32, risuteganib arm n = 24

C[C@@H](O)[C@H](NC(=O)[C@H](CS(=O)(=O)O)NC(=O)CNC(=O)[C@H](CCCNC(=N)N)NC(=O)CN)C(=O)N1CCC[C@H]1C(=O)O [risuteganib, Glycyl-L-arginylglycyl-3-sulfo-L-alanyl-L-threonyl-L-proline] (H-GRG[Cya]TP-OH)
Change in mean thickness, ELM-RPE mid subfield [1]: −2.493 μm | Change in mean thickness, EZ-RPE central subfield [1]: −1.803 μm | Change in mean thickness, EZ-RPE foveal center [1]: 6.825 μm | Change in mean thickness, EZ-RPE mid subfield [1]: −1.445 μm | Change in mean thickness, Inner retina central subfield [1]: 8.759 μm | Change in mean thickness, Inner retina mid subfield [1]: 8.511 μm | Change in mean thickness, ONL-EZ central subfield [1]: −9.158 μm | Change in mean thickness, ONL-EZ mid subfield [1]: −8.556 μm | Change in mean thickness, ONL-RPE central subfield [1]: −10.961 μm | Change in mean thickness, ONL-RPE foveal center [1]: −6.825 μm | Change in mean thickness, ONL-RPE mid subfield [1]: −10.001 μm | Change in mean thickness, RPE-BM central subfield [1]: −11.226 μm | Change in mean thickness, RPE-BM foveal center [1]: −14.381 μm | Change in mean thickness, RPE-BM mid subfield [1]: −6.715 μm | Change in mean thickness, Total retinal central subfield [1]: −2.202 μm | Change in mean thickness, Total retinal foveal center [1]: −7.569 μm | Change in mean thickness, Total retinal mid subfield [1]: −1.490 μm | Change in volume, ELM-EZ central subfield [1]: −0.001 mm^3 | Change in volume, ELM-EZ mid subfield [1]: −0.003 mm^3 | Change in volume, ELM-RPE [1]: 0.171 mm^3 | Change in volume, ELM-RPE central subfield [1]: −0.003 mm^3 | Change in volume, ELM-RPE mid subfield [1]: −0.008 mm^3 | Change in volume, EZ-RPE [1]: −0.051 mm^3 | Change in volume, EZ-RPE central subfield [1]: −0.001 mm^3 | Change in volume, EZ-RPE mid subfield [1]: −0.005 mm^3 | Change in volume, ONL-EZ central subfield [1]: −0.007 mm^3 | Change in volume, ONL-EZ mid subfield [1]: −0.027 mm^3 | Change in volume, ONL-RPE [1]: 0.044 mm^3 | Change in volume, ONL-RPE central subfield [1]: −0.008 mm^3 | Change in volume, ONL-RPE mid subfield [1]: −0.032 mm^3 | Change in volume, RPE-BM [1]: −0.048 mm^3 | Change in volume, RPE-BM central subfield [1]: −0.009 mm^3 | Change in volume, RPE-BM mid subfield [1]: −0.021 mm^3 | Change in volume, Total retinal [1]: −0.247 mm^3 | Change in volume, Total retinal central subfield [1]: −0.001 mm^3 | Change in volume, Total retinal mid subfield [1]: −0.005 mm^3 | Map coverage, 0 μm EZ [1]: 5.026% | Map coverage, 0 μm RPE-BM [1]: 1.546% | Map coverage, 10 μm EZ [1]: 5.037% | Map coverage, 20 μm EZ [1]: 4.506% | Map coverage, 50 μm RPE-BM [1]: −3.222% | Map coverage, 150 μm RPE-BM [1]: 2.943% | Map coverage, 250 μm RPE-BM [1]: −0.017% | Change in mean (SD) thickness, ELM-EZ central subfield [2]: −1.827 μm | Change in mean (SD) thickness, ELM-EZ mid subfield [2]: −0.106 μm | Change in mean (SD) thickness, ELM-RPE central subfield [2]: −2.912 μm | Change in mean (SD) thickness, ELM-RPE foveal center [2]: −6.094 μm | Change in mean (SD) thickness, ELM-RPE mid subfield [2]: −1.593 μm | Change in mean (SD) thickness, EZ-RPE central subfield [2]: −1.085 μm | Change in mean (SD) thickness, EZ-RPE foveal center [2]: −0.407 μm | Change in mean (SD) thickness, EZ-RPE mid subfield [2]: −1.486 μm | Change in mean (SD) thickness, Inner retina central subfield [2]: 3.880 μm | Change in mean (SD) thickness, Inner retina mid subfield [2]: 3.893 μm | Change in mean (SD) thickness, ONL-EZ central subfield [2]: −6.131 μm | Change in mean (SD) thickness, ONL-EZ mid subfield [2]: −4.954 μm | Change in mean (SD) thickness, ONL-RPE central subfield [2]: −7.216 μm | Change in mean (SD) thickness, ONL-RPE foveal center [2]: −3.488 μm | Change in mean (SD) thickness, ONL-RPE mid subfield [2]: −6.441 μm | Change in mean (SD) thickness, RPE-BM central subfield [2]: −4.178 μm | Change in mean (SD) thickness, RPE-BM foveal center [2]: −8.126 μm | Change in mean (SD) thickness, RPE-BM mid subfield [2]: −2.086 μm | Change in mean (SD) thickness, Total retinal central subfield [2]: −3.336 μm | Change in mean (SD) thickness, Total retinal foveal center [2]: −4.154 μm | Change in mean (SD) thickness, Total retinal mid subfield [2]: −2.548 μm | Change in volume, ELM-EZ central subfield [2]: −0.001 mm^3 | Change in volume, ELM-EZ mid subfield [2]: 0.000 mm^3 | Change in volume, ELM-RPE [2]: 0.048 mm^3 | Change in volume, ELM-RPE central subfield [2]: −0.002 mm^3 | Change in volume, ELM-RPE mid subfield [2]: −0.005 mm^3 | Change in volume, EZ-RPE [2]: −0.027 mm^3 | Change in volume, EZ-RPE central subfield [2]: −0.001 mm^3 | Change in volume, EZ-RPE mid subfield [2]: −0.005 mm^3 | Change in volume, ONL-EZ central subfield [2]: −0.005 mm^3 | Change in volume, ONL-EZ mid subfield [2]: −0.016 mm^3 | Change in volume, ONL-RPE [2]: −0.009 mm^3 | Change in volume, ONL-RPE central subfield [2]: −0.005 mm^3 | Change in volume, ONL-RPE mid subfield [2]: −0.020 mm^3 | Change in volume, RPE-BM [2]: −0.006 mm^3 | Change in volume, RPE-BM central subfield [2]: −0.003 mm^3 | Change in volume, RPE-BM mid subfield [2]: −0.007 mm^3 | Change in volume, Total retinal [2]: −0.048 mm^3 | Change in volume, Total retinal central subfield [2]: −0.002 mm^3 | Change in volume, Total retinal mid subfield [2]: −0.008 mm^3 | Map coverage, 0 μm EZ [3]: 2.574% | Map coverage, 0 μm RPE-BM [3]: 1.282% | Map coverage, 10 μm EZ [3]: 2.515% | Map coverage, 20 μm EZ [3]: 2.431% | Map coverage, 50 μm RPE-BM [3]: −2.644% | Map coverage, 150 μm RPE-BM [3]: 2.739% | Map coverage, 250 μm RPE-BM [3]: −0.006%
